In ChEMBL document CHEMBL5724796, “Tm Shift (DSF) assay results for EUbOPEN Chemogenomics Library” (2024):
Non-standard residues stand in square brackets, D forms with d. Residues, ends and D or L forms follow the SMILES beside them. Nle = CCCC[C@H](N)C(=O)O

What was measured:
[1] = target: Fibroblast growth factor receptor 2 (Homo sapiens) (UniProt P21802); details: Compound concentration 20.0 uM
Description: Thermal Shift Assay. Domain: start/stop: T457-E768

Peregrin (Homo sapiens) = target: T1, Peregrin (Homo sapiens) (UniProt P55201); details: Compound concentration 20.0 uM
T1 sequence (whole entry): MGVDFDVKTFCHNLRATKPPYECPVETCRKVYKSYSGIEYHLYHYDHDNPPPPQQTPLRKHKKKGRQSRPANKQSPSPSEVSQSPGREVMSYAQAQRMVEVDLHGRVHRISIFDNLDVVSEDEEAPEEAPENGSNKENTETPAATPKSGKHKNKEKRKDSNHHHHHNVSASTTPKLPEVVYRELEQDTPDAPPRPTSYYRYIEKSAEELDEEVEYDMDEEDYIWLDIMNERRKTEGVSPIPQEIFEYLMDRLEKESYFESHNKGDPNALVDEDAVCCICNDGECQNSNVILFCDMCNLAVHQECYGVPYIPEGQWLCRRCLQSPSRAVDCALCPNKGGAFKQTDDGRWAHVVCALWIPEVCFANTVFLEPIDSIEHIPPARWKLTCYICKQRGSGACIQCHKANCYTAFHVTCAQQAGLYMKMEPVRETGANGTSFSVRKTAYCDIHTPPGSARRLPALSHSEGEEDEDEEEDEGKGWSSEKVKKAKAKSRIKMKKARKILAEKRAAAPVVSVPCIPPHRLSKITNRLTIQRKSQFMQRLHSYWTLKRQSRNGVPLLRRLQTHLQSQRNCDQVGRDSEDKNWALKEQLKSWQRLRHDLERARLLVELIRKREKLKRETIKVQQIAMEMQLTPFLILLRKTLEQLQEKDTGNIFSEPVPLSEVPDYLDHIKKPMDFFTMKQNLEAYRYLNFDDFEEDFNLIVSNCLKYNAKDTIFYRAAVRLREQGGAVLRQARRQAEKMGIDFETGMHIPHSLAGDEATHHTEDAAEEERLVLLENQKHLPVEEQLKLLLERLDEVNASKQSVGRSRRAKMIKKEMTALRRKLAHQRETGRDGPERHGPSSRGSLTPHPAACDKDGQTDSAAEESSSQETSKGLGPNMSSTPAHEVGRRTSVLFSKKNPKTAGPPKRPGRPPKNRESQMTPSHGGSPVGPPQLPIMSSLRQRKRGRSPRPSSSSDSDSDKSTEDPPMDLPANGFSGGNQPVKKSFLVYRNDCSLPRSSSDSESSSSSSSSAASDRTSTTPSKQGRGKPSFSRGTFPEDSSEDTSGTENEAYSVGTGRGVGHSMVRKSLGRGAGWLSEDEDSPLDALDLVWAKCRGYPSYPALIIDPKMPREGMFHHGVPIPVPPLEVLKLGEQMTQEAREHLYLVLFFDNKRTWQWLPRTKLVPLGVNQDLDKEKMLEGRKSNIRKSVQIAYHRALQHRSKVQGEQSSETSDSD

Chain of Fibroblast growth factor receptor 2 (Homo sapiens) (P21802 22-821 limits assumed): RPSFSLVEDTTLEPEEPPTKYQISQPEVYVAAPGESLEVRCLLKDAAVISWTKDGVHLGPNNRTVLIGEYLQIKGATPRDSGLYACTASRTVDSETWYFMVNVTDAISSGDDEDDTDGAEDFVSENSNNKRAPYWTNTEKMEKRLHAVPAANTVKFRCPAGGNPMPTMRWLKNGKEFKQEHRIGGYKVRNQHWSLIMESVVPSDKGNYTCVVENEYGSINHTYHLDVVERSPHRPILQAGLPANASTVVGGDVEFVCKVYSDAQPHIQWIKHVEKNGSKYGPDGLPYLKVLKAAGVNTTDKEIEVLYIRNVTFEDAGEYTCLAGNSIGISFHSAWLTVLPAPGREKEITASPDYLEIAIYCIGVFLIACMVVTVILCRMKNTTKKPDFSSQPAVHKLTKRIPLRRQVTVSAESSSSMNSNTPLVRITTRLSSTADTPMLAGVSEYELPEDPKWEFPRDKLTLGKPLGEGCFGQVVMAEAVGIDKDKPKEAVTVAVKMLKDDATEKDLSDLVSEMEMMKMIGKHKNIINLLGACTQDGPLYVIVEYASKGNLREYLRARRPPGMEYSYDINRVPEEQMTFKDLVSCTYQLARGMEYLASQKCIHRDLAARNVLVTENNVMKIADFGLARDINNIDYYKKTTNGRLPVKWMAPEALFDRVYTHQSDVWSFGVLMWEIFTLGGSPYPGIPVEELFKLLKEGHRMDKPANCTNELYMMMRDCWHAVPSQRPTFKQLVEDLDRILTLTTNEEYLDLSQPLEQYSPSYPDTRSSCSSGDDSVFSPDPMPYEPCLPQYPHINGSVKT

| Compound | ΔTm [1] [°C] | ΔTm (Peregrin (Homo sapiens)) [°C] |
| --- | --- | --- |
| CC(C)N(C[C@H]1O[C@@H](n2cnc3c(N)ncnc32)[C@H](O)[C@@H]1O)[C@H]1C[C@@H](CCc2nc3cc(C(C)(C)C)ccc3[nH]2)C1 | 0.82 | -1.35 |
| CC(C)(C)c1ccc(CN(C(=O)CN(Cc2c(F)c(F)c(F)c(F)c2F)S(=O)(=O)c2ccc(F)cc2)c2ccc(C(=O)NO)cc2)cc1 | 1.58 | -3.76 |
| Cc1[nH]c2c(N3CCO[C@H](CO)C3)c(C#N)c(C(F)(F)F)nc2c1Cl | 0.41 | 1.11 |
| Cc1nc(-c2cnc(NC(C)C)n(C)c2=O)ccc1Oc1ccnc(-c2cnn(C)c2)c1 | 0.6 | -1.33 |
| CC(=O)N[C@@H](Cc1ccc(O)cc1)C(=O)N[C@H](C(=O)N[C@@H](C)C(=O)N[C@@H](CC(=O)O)C(=O)COC(=O)c1c(C)cccc1C)C(C)C | 0.82 | -1.58 |
| CN(Cc1cc(Br)cc(Br)c1N)C1CCCCC1 | -0.25 | 1.45 |
| CN(C)CC(c1ccc(O)cc1)C1(O)CCCCC1 (configuration not stated) | -0.09 | -1.07 |
| O=C(Nc1c[nH]nc1C(=O)NC1CCNCC1)c1cc(F)cc(F)c1 | 0.46 | -3.15 |
| C[C@]12CCCN1CC1=NNC(=O)c3cc(F)cc4[nH]c2c1c34 | 0.9 | -1.02 |
| COc1ccc(C(CN(C)C)C2(O)CCCCC2)cc1 (configuration not stated) | 0.29 | -0.6 |
| CN(Cc1cccc(-c2ccncc2)c1)C(=O)Oc1ccc(-c2ccc(C(N)=O)cc2)cc1 | 0.69 | 2.09 |
| O=C(NO)c1ccc(CN(c2cnccn2)c2cnccn2)cc1 | -0.14 | -0.86 |
| O=C1Nc2ccccc2C2(CCN(CC(Cc3ccccc3)Nc3nc4ccc(F)cc4s3)CC2)N1 (configuration not stated) | 2.21 | 0.27 |
| Nc1ccccc1NC(=O)c1ccc(CNc2nccc(-c3cccnc3)n2)cc1 | 1.02 | -0.72 |
| CN1CCN2c3c(cccc31)[C@@H]1CN(CCCC(=O)c3ccc(F)cc3)CC[C@@H]12 | -0.37 | -0.19 |
| CCCOC(=O)N1CCN(C(=O)c2ccc3c(Cl)cc(-c4ccc(C5(N)CC5)cc4)nc3c2)C[C@H]1C | -0.58 | -1.27 |

| Compound | ΔTm [1] [°C] | ΔTm (Peregrin (Homo sapiens)) [°C] |
| --- | --- | --- |
| CCCC[C@@H](C=O)NC(=O)[C@H](CC(C)C)NC(=O)[C@H](CC(C)C)NC(C)=O (Ac-Leu-Leu-[Nle]-aldehyde) | 0.84 | -1.4 |
| Cc1ccc(N2C(=O)/C(=C/C=C/c3ccco3)C(=O)NC2=S)cc1Cl | -1.72 | -2.31 |
| CC(C)(F)C[C@H](N[C@@H](c1ccc(-c2ccc(S(C)(=O)=O)cc2)cc1)C(F)(F)F)C(=O)NC1(C#N)CC1 | 0.18 | -1.04 |
| CCNC(=O)/C=C/c1cccc(Br)c1 | -0.4 | -1.37 |
| C/C=C1\NC(=O)[C@H]2CSSCC/C=C/[C@H](CC(=O)N[C@H](C(C)C)C(=O)N2)OC(=O)[C@H](C(C)C)NC1=O | 0.1 | 0 |
| O=[N+]([O-])c1c(Nc2cc(F)cc(Cl)c2)ccc2nonc12 | -0.15 | 0.04 |
| CCC[C@H]1CNCc2c1[nH]c(=O)c(C#N)c2N1CCC2(CC1)CC2 | 0.92 | -0.83 |
| CN1CCc2c(n(Cc3ccc(C(=O)NO)cc3)c3ccccc23)C1 | -3.78 | -0.68 |
| Cc1nc(F)ccc1-c1cc(Cn2ccn(C)c2=N)cc(C(=O)NCc2ccc(Cl)c(Cl)c2)c1 | 0.16 | -1.3 |
| O=C(c1cc(Cc2n[nH]c(=O)c3ccccc23)ccc1F)N1CCn2nc(C(F)(F)F)nc2C1 | -0.57 | 0.87 |
| CC(=O)Nc1ccc(OC[C@](C)(O)C(=O)Nc2ccc([N+](=O)[O-])c(C(F)(F)F)c2)cc1 | 2.59 | 0.97 |
| c1cncc(-c2cnn[nH]2)c1 | 0.33 | 0.36 |
| CC(C)c1ccc(-c2cc(=O)c3ccccc3o2)cc1 | -0.13 | -0.32 |
| N#Cc1cc(F)cc(Oc2ccc3c(c2C(F)F)[C@@H](O)C(F)(F)S3(=O)=O)c1 | -0.59 | 2.23 |
| CS(=O)(=O)c1ccc(-c2cnc(NCc3ccco3)n3cnnc23)cc1 | 0.54 | -1.15 |
